Assay: Melting of Form A0 in dry N2 (heated to 140° C., cooled to room temperature)
Format: physicochemical
Conditions: heated to 140° C. in dry N2 atmosphere, then cooled to room temperature and crushed
Protocol: A. The amorphous form of funapide was generated by melting Form A0 of funapide in a dry N2 atmosphere optionally using the VT stage on the XRPD unit. The sample was heated to 140° C. and then cooled to room temperature and crushed. […] The sample was confirmed to be the amorphous form of funapide by XRPD.

## O=C1N(Cc2ccc(C(F)(F)F)o2)c2ccccc2[C@]12COc1cc3c(cc12)OCO3 [Form A0 of funapide]
  decomposition on melting: No decomposition was observed
